Where two headings read alike, the source gives them in different places.
Tests used:
Format in all cases: cell-based
[1] = test system: donor A anti-donor B-primed human PBMC stimulated with PHA; experiment: Mitogenic response (PHA) of alloantigen-primed PBMC; conditions: then removed, priming without tyrphostin = 100%
Protocol: (§1) PBMC from donor A (10×10^6) were stimulated with equal number of irradiated (6000 cGy) donor B PBMC, with and without tyrphostins, in a total volume of 20 ml culture medium supplemented with 10% heat inactivated human AB^+ serum (mixed lymphocyte culture, MLC). Cultures were placed vertically in 25 cm tissue culture flasks in a 5% CO2, humidified incubator at 37° C. After 10 days, cells were washed twice to remove the tyrphostin, and tested for their ability to respond in the MLR and the primary mitogenic response assay described hereinabove.
Cultures were incubated for 48 hours in a total volume of 0.2 ml culture medium supplemented with 10% heat-inactivated human AB^+ serum at 37° C. in a 5% CO2 humidified incubator, pulsed for 16-18 hours with 1 μCi [^3H]TdR/well, and then harvested.
(§2) Harvesting and radioactivity determination: Harvesting was carried out by a multiple-sample cell harvester and radioactivity, expressed in counts per minutes (cpm), was determined in a liquid scintillation β-counter.
(§3) […] After 10 days the tyrphostin was removed and the primed cells were tested for their ability to respond in a secondary MLR assay against the priming (donor B) alloantigens, in a primary MLR assay against third party unrelated alloantigens (donor C), and to non-specific stimulation in a mitogenic assay. […] Percentage of response was calculated according to the formula described above.

[2] = test system: donor A anti-donor B-primed human PBMC vs donor B PBMC; experiment: Secondary MLR of alloantigen-primed PBMC against priming donor B; conditions: then removed, priming without tyrphostin = 100%
Protocol: as §1
(§4) The alloreactivity of donor A anti-donor B-primed cells (5×10^4) was tested in a 6-day one-way primary MLR assay against third party unrelated donor C PBMC (10^5), or against donor A cells (background control). Cultures were placed in round-bottom microwell plates. On day 5, cultures were pulsed with 2 μCi [^3H] TdR/well for 16-18 hours and then harvested. […] After 48 hours at 37° C. in a 5% CO2 humidified incubator, cultures were pulsed with 2 μCi [^3H] TdR for another 16-18 hours and then harvested.
as §2, §3

[3] = test system: donor A anti-donor B-primed human PBMC vs third party unrelated donor C PBMC; experiment: Primary MLR of alloantigen-primed PBMC against third party unrelated donor C; conditions: then removed, priming without tyrphostin = 100%
Protocol: as §1, §4, §2, §3

[4] = test system: Human PBMC incubated with MHC-mismatched PBMC; experiment: One-way mixed lymphocyte reaction (primary MLR), [3H]TdR uptake; conditions: for IC50: Table 5, some values marked (mean), read-out: IC 50% (inhibition of Primary MLR); for cpm: no tyrphostin 10,734 cpm; for cpm ± SD: no tyrphostin 30,520 cpm; for % response (alloreactive relative response, cpm with/without tyrphostin x100): FIG. 2, response without tyrphostin = 100%
Protocol: Cell sources: Human peripheral blood mononuclear cells (PBMC) were obtained from healthy human donors after separation on Ficoll-Paque density gradient essentially as described in Boyum, A. Scand. J Lab. Invest. […] Reagents:
One-way mixed lymphocyte reaction (MLR assay): Responding cells derived from donor A (5×10^4) were cultured in round-bottom microwell plates with an equal number (5×10^4) of irradiated (6000 cGy) donor B PBMC with and without tyrphostins. […] During the last 18 hours of incubation, cultures were pulsed with 2 μCi of [^3H] TdR.
as §2
Human PBMC were incubated either with autologous or with MHC-mismatched PBMC in a one-way MLR assay, with and without various concentrations of tyrphostins, as is described hereinabove.
In this case, the alloreactive response without the tyrphostins was considered as 100% response. Percentage of response was calculated according to the following formula: b/a×100; where a=cpm in cultures without tyrphostin, b=cpm in cultures with tyrphostin.

[5] = test system: Human PBMC stimulated with phytohemagglutinin (PHA); experiment: Primary mitogenic response assay (PHA), [3H]TdR uptake; conditions: Table 6, tyrphostin 20 μM; for inhibition at 20 µM: Homo sapiens, PBMC, 96 h; for cpm ± SD: PHA without tyrphostin 14,959±644, medium 155±37
Protocol: Mitogens: Phytohemagglutinin (PHA) and concanavalin A (Con-A) were dissolved in saline and diluted to their final concentration in culture medium. Anti-CD3 (OK3 stock solution 1 μg/ml) was diluted to 0.2 μg/ml final concentration in culture medium.
Responding PBMC cells (10^5) derived from donor A were cultured in flat-bottom microwell plates with and without tyrphostins, and with phytohemagglutinin (PHA) 1 μg/ml, or concanavalin A 18 μg/ml. […] During the last 18 hours of incubation, cultures were pulsed with 1 μCi of [^3H] TdR.
as §2

[6] = primed 10 days with tyrphostin 10 μM
[7] = primed 10 days with tyrphostin 20 μM
[8] = primed 10 days with tyrphostin 30 μM
[9] = Homo sapiens, PBMC, 144 h, Table 2, primary MLR, tyrphostin 10 μM
[10] = Homo sapiens, PBMC, 144 h, Table 2, primary MLR, tyrphostin 50 μM
[11] = Table 2, primary MLR, tyrphostin 10 μM
[12] = Table 2, primary MLR, tyrphostin 50 μM
[13] = Homo sapiens, PBMC, 144 h, Table 3, primary MLR, tyrphostin 25 μM
[14] = Homo sapiens, PBMC, 144 h, Table 3, primary MLR, tyrphostin 50 μM
[15] = Table 3, primary MLR, tyrphostin 25 μM
[16] = Table 3, primary MLR, tyrphostin 50 μM
[17] = primed 10 days with tyrphostin 40 μM
[18] = primed 10 days with tyrphostin 5 μM
[19] = Table 2, primary MLR, tyrphostin 5 μM

With `N#CC(=Cc1cc(O)c(O)c(CSCCc2ccccc2)c1)C(=O)NCCCCc1ccccc1` [Tyr 6, 2-cyano-3-(3,4-dihydroxy-5-phenethylsulfanylmethyl-phenyl)-N-(4-phenylbutyl)-acrylamide] the “% Response to PHA” value [1, 6] was 152%, the “% Response to PHA” value [1, 7] was 62 ± 42^ % and the “% Response to PHA” value [1, 8] was 20%. The “% Response to primary stimulator” value [2, 6] was 32%, the “% Response to primary stimulator” value [2, 7] was 32 ± 0% and the “% Response to primary stimulator” value [2, 8] was 46%. The “% Response to unrelated stimulator” value [3, 6] was 250%, the “% Response to unrelated stimulator” value [3, 7] was 220 ± 93% and the “% Response to unrelated stimulator” value [3, 8] was 185%. It also gave an inhibition at 10 µM [4, 9] of 59%, an inhibition at 50 µM [4, 10] of 99% and an IC50 ([4]; Homo sapiens, PBMC) of 23 µM. For the same compound, the cpm [4, 11] was 4,431 cpm, the cpm [4, 12] was 168 cpm and the inhibition at 20 µM ([5]; mitogenic response) was 70%. The “cpm ± SD” value [5] was 4,662 ± 104 cpm.

With `COc1cc2ncnc(Nc3ccc(O)cc3)c2cc1OC` [Tyr 9, 4-(6,7-dimethoxyquinazoline-4-yl-amino)-phenol] the inhibition at 25 µM [4, 13] was 95%, the inhibition at 50 µM [4, 14] was 99% and the IC50 ([4]; Homo sapiens, PBMC) was 26 µM. For the same compound, the “cpm ± SD” value [4, 15] was 1,367 cpm, the “cpm ± SD” value [4, 16] was 371 cpm and the inhibition at 20 µM ([5]; mitogenic response) was 70%. For the same compound, the “cpm ± SD” value [5] was 4,582 ± 617 cpm.

`COc1ccc(-c2nn(C(C)(C)C)c3ncnc(N)c23)cc1OC` [Tyr 19, 4-amino-1-t-butyl-3-(3,4-dimethoxyphenyl)-pyrazolo[3,4-d]pyrimidine] was tested, and the inhibition at 10 µM ([4]; Homo sapiens, PBMC, 144 h, Table 4, primary MLR, tyrphostin 10 μM) was 63%, the inhibition at 20 µM ([4]; Homo sapiens, PBMC, 144 h, Table 4, primary MLR, tyrphostin 20 μM) was 80% and the IC50 ([4]; Homo sapiens, PBMC) was 3 µM. The inhibition at 20 µM ([5]; mitogenic response) was 96% and the “cpm ± SD” value [5] was 553 ± 59 cpm.

For `N#CC(=Cc1cc(O)c(O)c(CSCCCc2ccccc2)c1)C(=O)NCc1ccccc1` [Tyr 2, N-benzyl-2-cyano-3-[3,4-dihydroxy-5-(3-phenylpropylsulfanylmethyl)-phenyl]-acrylamide], the “% Response to PHA” value [1, 7] was 900%, the “% Response to PHA” value [1, 17] was 254% and the “% Response to primary stimulator” value [2, 7] was 280%. For the same compound, the “% Response to primary stimulator” value [2, 17] was 15%, the “% Response to unrelated stimulator” value [3, 7] was 257% and the “% Response to unrelated stimulator” value [3, 17] was 138%. For the same compound, the “% response (alloreactive relative response, cpm with/without tyrphostin x100)” value ([4]; primary MLR, tyrphostin 10 μM) was 73%, the “% response (alloreactive relative response, cpm with/without tyrphostin x100)” value ([4]; primary MLR, tyrphostin 50 μM) was 0% and the inhibition at 20 µM ([4]; Homo sapiens, PBMC, 144 h, Table 2, primary MLR, tyrphostin 20 μM) was 73%. For the same compound, the inhibition at 40 µM ([4]; Homo sapiens, PBMC, 144 h, Table 2, primary MLR, tyrphostin 40 μM) was 95%, the IC50 ([4]; Homo sapiens, PBMC) was 22 µM and the cpm ([4]; Table 2, primary MLR, tyrphostin 20 μM) was 2,863 cpm. For the same compound, the cpm ([4]; Table 2, primary MLR, tyrphostin 40 μM) was 490 cpm.

Work on `N#CC(C#N)=Cc1ccc([N+](=O)[O-])c(O)c1` [Tyr 7, 2-(3-hydroxy-4-nitro-benzylidene)malononitrile] yielded an inhibition at 50 µM [4, 10] of 50%, an inhibition at 100 µM ([4]; Homo sapiens, PBMC, 144 h, Table 2, primary MLR, tyrphostin 100 μM) of 95% and an IC50 ([4]; Homo sapiens, PBMC) of 36 µM. The cpm [4, 12] was 5,348 cpm and the cpm ([4]; Table 2, primary MLR, tyrphostin 100 μM) was 512 cpm.

In the case of `N#CC(=Cc1c[nH]c2ccccc12)c1[nH]nc(N)c1C#N` [Tyr 24, 3-amino-5-[1-cyano-2-(1H-indol-3-yl)vinyl]-1H-pyrazole-4-carbonitrile], the inhibition at 20 µM ([5]; mitogenic response) is reported as 96% and the “cpm ± SD” value [5] is reported as 533 ± 45 cpm.

`CC(C)(C)n1nc(-c2cccs2)c2c(N)ncnc21` [Tyr 15, 4-amino-1-t-butyl-3-(2-thiophene)pyrazolo[3,4-d]pyrimidine] showed an IC50 [4] of 7 µM.

For `CC(C)(C)n1nc(-c2ccc(Cl)cc2)c2c(N)ncnc21` [Tyr 4, 4-amino-1-t-butyl-3-(p-chlorophenyl)pyrazolo[3,4-d]pyrimidine], the “% Response to PHA” value [1, 18] was 29%, the “% Response to PHA” value [1, 6] was 120 ± 40% and the “% Response to PHA” value [1, 7] was 40 ± 32^ %. For the same compound, the “% Response to primary stimulator” value [2, 18] was 132%, the “% Response to primary stimulator” value [2, 6] was 13 ± 4.5% and the “% Response to primary stimulator” value [2, 7] was 6.5 ± 0.5%. For the same compound, the “% Response to unrelated stimulator” value [3, 18] was 145%, the “% Response to unrelated stimulator” value [3, 6] was 288 ± 122^ % and the “% Response to unrelated stimulator” value [3, 7] was 204 ± 18%. For the same compound, the cpm [4, 19] was 3,316 cpm, the cpm [4, 11] was 580 cpm and the inhibition at 20 µM ([5]; mitogenic response) was 98%. The “cpm ± SD” value [5] was 230 ± 115 cpm.

`COc1cc2ncnc(Nc3ccc(C(N)=O)cc3)c2cc1OC` [Tyr 8, 4-(6,7-dimethoxyquinazoline-4-yl-amino)-benzamide] gave an inhibition at 25 µM [4, 13] of 49%, an inhibition at 50 µM [4, 14] of 63% and an IC50 ([4]; Homo sapiens, PBMC) of 43 µM. The “cpm ± SD” value [4, 15] was 12,452 cpm and the “cpm ± SD” value [4, 16] was 11,293 cpm.

`N#CC(=Cc1ccc(O)c(O)c1)C(=O)NCCCCc1ccccc1` [Tyr 5, 2-cyano-3-(3,4-dihydroxyphenyl)-N-(4-phenylbutyl)-acrylamide] was tested, and the “% response (alloreactive relative response, cpm with/without tyrphostin x100)” value ([4]; primary MLR, tyrphostin 10 μM) was 32%, the “% response (alloreactive relative response, cpm with/without tyrphostin x100)” value ([4]; primary MLR, tyrphostin 50 μM) was 13% and the inhibition at 10 µM [4, 9] was 40%. The inhibition at 50 µM [4, 10] was 70%, the IC50 ([4]; Homo sapiens, PBMC) was 34 µM and the cpm [4, 11] was 6,413 cpm. The cpm [4, 12] was 3,156 cpm.

For “3-(3,5-dimethyl-H-pyrrol-2-yl-methylene)-2-oxo-2,3-dihydro-1H-indole-5-sulfonic acid dimethylamide [Tyr 16]”, the “% Inhibition” value ([4]; Table 4, primary MLR, tyrphostin 1 μM) was 62% and the IC50 [4] was 4 µM.

In the case of `Cc1ccc(-c2nn(C(C)(C)C)c3ncnc(N)c23)cc1` [Tyr 3, 4-amino-1-t-butyl-3-(p-toluyl)pyrazolo[3,4-d]pyrimidine], the “% Response to PHA” value [1, 18] is reported as 26%, the “% Response to PHA” value [1, 6] is reported as 110 ± 35% and the “% Response to PHA” value [1, 7] is reported as 30 ± 28^ %. For the same compound, the “% Response to primary stimulator” value [2, 18] was 65%, the “% Response to primary stimulator” value [2, 6] was 24 ± 10% and the “% Response to primary stimulator” value [2, 7] was 24 ± 18%. The “% Response to unrelated stimulator” value [3, 18] was 55%, the “% Response to unrelated stimulator” value [3, 6] was 206 ± 99% and the “% Response to unrelated stimulator” value [3, 7] was 57 ± 44^ %. The cpm [4, 19] was 3,130 cpm, the cpm [4, 11] was 145 cpm and the inhibition at 20 µM ([5]; mitogenic response) was 98%. The “cpm ± SD” value [5] was 300 ± 24 cpm.

With `CC(C)(C)c1cc(C=C(C#N)C(N)=S)cc(C(C)(C)C)c1O` [Tyr 23, 2-cyano-3-(3,5-di-t-butyl-4-hydroxyphenyl)-thioacrylamide] the inhibition at 20 µM ([5]; mitogenic response) was 68% and the “cpm ± SD” value [5] was 4,831 ± 1026 cpm.

`N#CC(=Cc1ccc(O)c(O)c1)C(=S)NCc1ccccc1` [Tyr 26, N-benzyl-2-cyano-3-(3,4-dihydroxyphenyl)-thioacrylamide] was tested, and the inhibition at 20 µM ([5]; mitogenic response) was 70% and the “cpm ± SD” value [5] was 4,295 ± 221 cpm.

For `N#CC(=Cc1cc(O)c(O)c(I)c1)C(=O)NCCCc1ccccc1` [Tyr 32, 2-cyano-3-(3,4-dihydroxy-5-iodophenyl)-N-(4-phenylpropyl)-acrylamide], the “% Inhibition” value ([5]; mitogenic response) was 58% and the “cpm ± SD” value [5] was 6,303 ± 1205 cpm.

From patent US20040197335A1, “Non-myeloablative tolerogenic treatment with tyrphostins” (priority 2003, published 2004)
